Data on three compounds can be found in article PMC6936217 (Science translational medicine, 2019).

The target in assay [1] is EBNA1 (Epstein-Barr virus, UniProt P03211). Nature of the assay: ALPHA proximity DNA binding assay.
The target in assay [2] is 15N-labeled EBNA1 (Epstein-Barr virus, UniProt P03211). The experiment in a line: HSQC NMR with 15N-labeled EBNA1. The format is binding. The conditions noted are these: 50 μM ligand.
The mark [3] stands for this setting: read-out: IC50, inhibition of EBNA1 DNA binding, ALPHA proximity assay.

Read-outs that look alike come from different tables or passages of the source.

Chain of EBNA1 (P03211 459-607): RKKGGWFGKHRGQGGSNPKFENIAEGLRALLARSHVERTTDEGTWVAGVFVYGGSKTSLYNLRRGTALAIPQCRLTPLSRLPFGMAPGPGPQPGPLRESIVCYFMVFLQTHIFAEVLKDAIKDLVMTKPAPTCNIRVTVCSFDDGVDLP
Chain of 15N-labeled EBNA1 (P03211 459-607): as above

Take `O=C(O)c1cncc(C#Cc2ccccc2)c1` [VK-0044, 5-phenylacetylenyl nicotinic acid]: the IC50 (usually the concentration at which inhibition is half-maximal) in assay [1] was 110000 nM. With `O=C(O)c1ccccc1-n1cccc1` [VK-0064, 2-pyrrolo-benzoic acid], the IC50 in assay [1] (setting [3]) stood at 2000 nM. Take `O=C(O)c1cccc(C#Cc2ccccc2)c1-n1cccc1` [VK-0497, 2-pyrrolo-3-phenylacetylenyl benzoic acid]: the “binding to EBNA1 by chemical shift changes” value in assay [2] was “direct binding”. For the same compound, the IC50 in assay [1] (setting [3]) stood at 890 nM.
